{"source": "patent US20040022788A1", "about": "“Compositions and methods for promoting or inhibiting angiogenesis” (priority 1998, published 2004)", "key": {"HUVEC [1]": {"system": "HUVEC", "test": "HUVEC proliferation assay (MTS/PMS)", "assay_type": "cell-based, human", "conditions": "for Percent proliferation inhibited, ±SEM, Without Antibody: 24 h", "method": "Proliferation Assay. HUVEC were plated at a density of 5,000 cells/well in media depleted of FCS overnight to allow the cells to become quiescent. […] In some experiments antibody directed against the alpha subunit of ATP synthase derived from E. coli was also added at a dilution of 1:10. MTS/PMS [(3-(4,5-dimethylthiazol-2-yl)-5-(3-carboxymethoxyphenyl)-2-(4-sulfophenyl)-2H-tetrazolium inner salt/phenazine methosulfate] solution was added after 24 h, and the absorbance of formazan was quantitated on a Thermomax plate reader at a wavelength of 490 nm according to the manufacturer's specifications (Promega). The absorbance values used to calculate the percent proliferation of the cells ranged from 0.81 for untreated, 0.60 for treated, and 0.47 for baseline quiescent cells.\nAnti-alpha-subunit ATP synthase antibody derived from E. coli was added concomitantly at a dilution of 1:10. MTS/PMS solution was added and absorbance of formazan was quantitated according to the manufacturer's specifications. Results represent three separate experiments performed in duplicate with SEM. Percent recovery represents the ability of the anti-alpha-subunit ATP synthase antibody to block the antiproliferative effect of angiostatin, and thereby restore proliferation to an average of 81% of that obtained with the control cells."}, "[2]": {"target": "T1, recombinant alpha subunit of human ATP synthase (Homo sapiens, UniProt P25705)", "T1 construct": "His tag; made in house; host or cells: E. coli BL21DE3", "test": "Ligand blot binding to the recombinant alpha subunit of ATP synthase", "conditions": "ligand blot", "method": "FIGS. 7A-7E. Angiostatin binding to the recombinant alpha subunit of human ATP synthase. The alpha subunit of human ATP synthase was cloned and expressed in E. coli and purified using Qiagen's nickel-Sepharose protein purification system before dialyzing in phosphate buffered saline (PBS), pH 7.0. Recombinant protein was electrophoresed on 5-15% SDS-PAGE, electroblotted onto Immobilon™ membrane and incubated 18 h in 10 mM Tris-HCl, 0.15M NaCl, 0.05% NP40, pH 7.5 (TSN) containing ^125I-angiostatin. For competition studies, unlabeled ligand was added 4 h prior to radiolabeled ligand. Blots were washed in TSN buffer containing 0.05% Tween80 and bound radioactivity was quantified on a Molecular Dynamics PhosphorImager™.\nPurification of the alpha-Subunit of ATP Synthase. Competent E. coli BL21DE3 were transformed with the pET24a(+) vector containing the alpha subunit, plated on 2× Bacto-yeast tryptone (YT) agarose, and grown overnight at 37° C. Twenty milliliters of 2× YT containing […] kanamycin was inoculated with one colony and grown overnight at 37° C. (200 rpm). A 1-liter culture (2× YT, […] kanamycin) was inoculated with 20 ml of the noninduced overnight culture and grown at 37° C. to an OD of 0.6 at a wavelength of 600 nm. Isopropyl […] was added to a final concentration of 1 mM and grown for an additional 3 h. Cells were harvested by centrifugation at 8,000 rpm for 10 min and stored overnight at −20° C. Lysates were prepared under denaturing conditions and batch-purified by using Qiagen Ni-NTA agarose. Resulting protein was dialyzed against PBS, pH 7.0 for use in all experiments."}, "[3]": {"target": "T2, purified bovine F1 ATP synthase (Bos taurus, UniProt P00829+P19483)", "T2 construct": "from tissue; host or cells: bovine heart mitochondria", "test": "ELISA binding of angiostatin to purified F1 ATP synthase", "conditions": "double-reciprocal plots; 1 μg F1 ATP synthase per well; read-out: apparent dissociation constant Kd(app)", "method": "FIG. 11 is a bar graph showing the binding of angiostatin to purified bovine F1 ATP synthase. ELISA was used to determine concentration-dependent binding of angiostatin to a constant amount of F1 ATP synthase. Each well was coated with 1 μg of F1 ATP synthase prior to addition of […] amounts of angiostatin.\nELISA Binding Studies. Binding studies were performed with purified F1 subunit of bovine ATP synthase ([…]) passively adsorbed onto polyvinylchloride microtiter 96-well flat bottom plates (Dynex Technologies, Inc, Chantilly, Va.) as previously described (22). Briefly, plates were coated with protein in 50 μl of 0.1M Na2CO3, pH9.6 and incubated 2 h at 37° C. Non-specific sites were blocked by incubating with PBS, pH 7.0 containing 1% BSA for 30 min at rt. Binding studies were performed with increasing amounts of angiostatin (0-0.5 mg/ml) added in a […] for 1 h at 37° C. Plates were washed (0.1% Tween20/PBS, pH 7.0) and incubated with anti-human angiostatin antibody (goat IgG) (R&D Systems, Minneapolis, Minn.) (1:200 dil) overnight at 4° C. […] Plates were washed and 150 μl of OPD substrate was added to each well and the reaction stopped with 25 μl of H2SO4 (25%), before monitoring the absorbance at λ=492 nm in a Molecular Devices SpectraMax Plus-384 plate reader. […]"}, "HUVEC [4]": {"system": "HUVEC", "test": "Direct binding of 125I-labeled plasminogen or angiostatin to endothelial cells, Scatchard analysis", "parameters": "species or system human", "conditions": "125I-labeled ligand, 1 h at 4° C., read-out: apparent dissociation constant (Kd)", "method": "FIGS. 1A and 1B. Direct binding assay and Scatchard analysis of plasminogen and angiostatin with endothelial cells. HUVEC were plated at a density of 10,000 cells/well and incubated with increasing concentrations of ^125I-labeled-plasminogen or angiostatin. FIG. 1A. ^125I-labeled plasminogen binding was concentration-dependent and saturable with an apparent dissociation constant ([…]) of 158 nM and 870,000 sites/cell. FIG. 1B. […] Error bars represent standard deviation.\nBinding Assays. Ligands were radioiodinated by using Iodobeads (Pierce), repurified on L-lysine-Sepharose, eluted with 100 mM ε-aminocaproic acid, and dialyzed in PBS, pH 7.0 before use in binding assays. HUVEC were plated at a density of 5,000 or 10,000 cells/well and incubated with increasing concentrations of ^125I-labeled ligand in media containing 1% BSA for 1 h at 4° C. in 96-well plates. Wells were washed, and remaining bound radioactivity was quantified by using an LKB 1272 γ-radiation counter. Nonspecific binding was measured in the presence of excess unlabeled ligand."}}}
{"substance": "angiostatin", "values": [{"measurement": "Percent proliferation inhibited, ±SEM, With antibody", "setting": "HUVEC [1]; angiostatin 0.5 μM plus anti-alpha subunit ATP synthase antibody 1:10", "value": "1 ± 0.2", "unit": "%"}, {"measurement": "Percent proliferation inhibited, ±SEM, Without Antibody", "setting": "HUVEC [1]; angiostatin 0.5 μM", "value": "10 ± 1.4", "unit": "%"}, {"measurement": "Percent proliferation inhibited, ±SEM, With antibody", "setting": "HUVEC [1]; angiostatin 0.75 μM plus anti-alpha subunit ATP synthase antibody 1:10", "value": "5 ± 4.1", "unit": "%"}, {"measurement": "Percent proliferation inhibited, ±SEM, Without Antibody", "setting": "HUVEC [1]; angiostatin 0.75 μM", "value": "25 ± 4.2", "unit": "%"}, {"measurement": "Percent proliferation inhibited, ±SEM, With antibody", "setting": "HUVEC [1]; angiostatin 1.0 μM plus anti-alpha subunit ATP synthase antibody 1:10", "value": "6 ± 0.8", "unit": "%"}, {"measurement": "Percent proliferation inhibited, ±SEM, Without Antibody", "setting": "HUVEC [1]; angiostatin 1.0 μM", "value": "23 ± 9.0", "unit": "%"}, {"measurement": "binding of 125I-labeled ligand to recombinant alpha subunit", "setting": "[2]", "value": "bound"}, {"measurement": "Kd", "setting": "[3]", "value": 12, "unit": "nM"}, {"measurement": "Kd", "setting": "HUVEC [4]", "value": 245, "unit": "nM"}]}
